Experimental data: PubChem BioAssay (NCI)
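Growth conditions: 96-well plates. Treatment: test compound, 48 hours, 5 concentrations. Analysis: linear interpolation between bracketing concentrations; unreached endpoints set to highest concentration. Definition used: TGI = concentration required for complete inhibition of growth.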

Key:
Assay in all cases: NCI-60 cell line screen, 48 h
786-0 renal = tested on: 786-0 renal
A549 NSCLC = tested on: A549 NSCLC
ACHN renal = tested on: ACHN renal
BT-549 breast = tested on: BT-549 breast
CAKI-1 renal = tested on: CAKI-1 renal
CCRF-CEM leukemia = tested on: CCRF-CEM leukemia
COLO 205 colon = tested on: COLO 205 colon
DU-145 prostate = tested on: DU-145 prostate
EKVX NSCLC = tested on: EKVX NSCLC
HCC-2998 colon = tested on: HCC-2998 colon
HCT-116 colon = tested on: HCT-116 colon
HCT-15 colon = tested on: HCT-15 colon
HL-60(TB) leukemia = tested on: HL-60(TB) leukemia
HOP-62 NSCLC = tested on: HOP-62 NSCLC
HOP-92 NSCLC = tested on: HOP-92 NSCLC
HS 578T breast = tested on: HS 578T breast
HT29 colon = tested on: HT29 colon
IGROV1 ovarian = tested on: IGROV1 ovarian
K-562 leukemia = tested on: K-562 leukemia
KM12 colon = tested on: KM12 colon
LOX IMVI melanoma = tested on: LOX IMVI melanoma
M14 melanoma = tested on: M14 melanoma
MALME-3M melanoma = tested on: MALME-3M melanoma
MCF7 breast = tested on: MCF7 breast
MDA-MB-231 breast = tested on: MDA-MB-231 breast
MDA-MB-435 = tested on: MDA-MB-435
MDA-N = tested on: MDA-N
MOLT-4 leukemia = tested on: MOLT-4 leukemia
NCI-H226 lung = tested on: NCI-H226 lung
NCI-H23 lung = tested on: NCI-H23 lung
NCI-H522 lung = tested on: NCI-H522 lung
NCI/ADR-RES ovarian = tested on: NCI/ADR-RES ovarian
OVCAR-3 ovarian = tested on: OVCAR-3 ovarian
OVCAR-4 ovarian = tested on: OVCAR-4 ovarian
OVCAR-5 ovarian = tested on: OVCAR-5 ovarian
OVCAR-8 ovarian = tested on: OVCAR-8 ovarian
PC-3 prostate = tested on: PC-3 prostate
RPMI-8226 leukemia = tested on: RPMI-8226 leukemia
SF-268 CNS = tested on: SF-268 CNS
SF-295 CNS = tested on: SF-295 CNS
SF-539 CNS = tested on: SF-539 CNS
SK-MEL-2 melanoma = tested on: SK-MEL-2 melanoma
SK-MEL-5 melanoma = tested on: SK-MEL-5 melanoma
SK-OV-3 ovarian = tested on: SK-OV-3 ovarian
SN12C renal = tested on: SN12C renal
SNB-19 CNS = tested on: SNB-19 CNS
SNB-75 CNS = tested on: SNB-75 CNS
SR leukemia = tested on: SR leukemia
SW-620 colon = tested on: SW-620 colon
T-47D breast = tested on: T-47D breast
TK-10 renal = tested on: TK-10 renal
U251 CNS = tested on: U251 CNS
UACC-257 melanoma = tested on: UACC-257 melanoma
UACC-62 melanoma = tested on: UACC-62 melanoma
UO-31 renal = tested on: UO-31 renal
A498 renal = tested on: A498 renal
NCI-H460 lung = tested on: NCI-H460 lung
SK-MEL-28 melanoma = tested on: SK-MEL-28 melanoma

SMILES: C/C(=N/OC(=O)c1cccc2c(=O)c3ccccc3[nH]c12)[C@H]1CC[C@H]2[C@@H]3CCC4=C/C(=N/OC(=O)c5cccc6c(=O)c7ccccc7[nH]c56)CC[C@]4(C)[C@H]3CC[C@]12C
- TGI (786-0 renal): 44.7 µM
- TGI (A549 NSCLC): > 100 µM
- TGI (ACHN renal): 29.5 µM
- TGI (BT-549 breast): 34.8 µM
- TGI (CAKI-1 renal): 47.2 µM
- TGI (CCRF-CEM leukemia): 16.3 µM
- TGI (COLO 205 colon): 30.3 µM
- TGI (DU-145 prostate): 79.3 µM
- TGI (EKVX NSCLC): 71.3 µM
- TGI (HCC-2998 colon): 26.9 µM
- TGI (HCT-116 colon): 25 µM
- TGI (HCT-15 colon): 27 µM
- TGI (HL-60(TB) leukemia): 34 µM
- TGI (HOP-62 NSCLC): 51.2 µM
- TGI (HOP-92 NSCLC): 42.6 µM
- TGI (HS 578T breast): > 100 µM
- TGI (HT29 colon): 28.8 µM
- TGI (IGROV1 ovarian): 37.1 µM
- TGI (K-562 leukemia): > 100 µM
- TGI (KM12 colon): 38.2 µM
- TGI (LOX IMVI melanoma): 26.7 µM
- TGI (M14 melanoma): 29.7 µM
- TGI (MALME-3M melanoma): 37.3 µM
- TGI (MCF7 breast): 26.4 µM
- TGI (MDA-MB-231 breast): 30.6 µM
- TGI (MDA-MB-435): 33.3 µM
- TGI (MDA-N): 30.3 µM
- TGI (MOLT-4 leukemia): 39.6 µM
- TGI (NCI-H226 lung): 52.8 µM
- TGI (NCI-H23 lung): 29.9 µM
- TGI (NCI-H522 lung): 26.2 µM
- TGI (NCI/ADR-RES ovarian): 43.1 µM
- TGI (OVCAR-3 ovarian): 34.4 µM
- TGI (OVCAR-4 ovarian): > 100 µM
- TGI (OVCAR-5 ovarian): 33.7 µM
- TGI (OVCAR-8 ovarian): 33.3 µM
- TGI (PC-3 prostate): 31.5 µM
- TGI (RPMI-8226 leukemia): 14.6 µM
- TGI (SF-268 CNS): 45.5 µM
- TGI (SF-295 CNS): 34.6 µM
- TGI (SF-539 CNS): 29.5 µM
- TGI (SK-MEL-2 melanoma): 32.8 µM
- TGI (SK-MEL-5 melanoma): 26.4 µM
- TGI (SK-OV-3 ovarian): 93.2 µM
- TGI (SN12C renal): 30.6 µM
- TGI (SNB-19 CNS): 39.4 µM
- TGI (SNB-75 CNS): 97.6 µM
- TGI (SR leukemia): 25.3 µM
- TGI (SW-620 colon): 27.1 µM
- TGI (T-47D breast): 58.8 µM
- TGI (TK-10 renal): 45.2 µM
- TGI (U251 CNS): 29.6 µM
- TGI (UACC-257 melanoma): 33.4 µM
- TGI (UACC-62 melanoma): 32.1 µM
- TGI (UO-31 renal): 28.5 µM

SMILES: CC1(O)CCC(C(C)(C)O)CC1 (configuration not stated)
- TGI (786-0 renal): > 100 µM
- TGI (A498 renal): > 100 µM
- TGI (A549 NSCLC): > 100 µM
- TGI (ACHN renal): > 100 µM
- TGI (BT-549 breast): > 100 µM
- TGI (CAKI-1 renal): > 100 µM
- TGI (CCRF-CEM leukemia): > 100 µM
- TGI (COLO 205 colon): > 100 µM
- TGI (DU-145 prostate): > 100 µM
- TGI (EKVX NSCLC): > 100 µM
- TGI (HCC-2998 colon): > 100 µM
- TGI (HCT-116 colon): > 100 µM
- TGI (HCT-15 colon): > 100 µM
- TGI (HL-60(TB) leukemia): > 100 µM
- TGI (HOP-62 NSCLC): > 100 µM
- TGI (HOP-92 NSCLC): > 100 µM
- TGI (HS 578T breast): > 100 µM
- TGI (HT29 colon): > 100 µM
- TGI (IGROV1 ovarian): > 100 µM
- TGI (K-562 leukemia): > 100 µM
- TGI (KM12 colon): > 100 µM
- TGI (LOX IMVI melanoma): > 100 µM
- TGI (M14 melanoma): > 100 µM
- TGI (MCF7 breast): > 100 µM
- TGI (MDA-MB-231 breast): > 100 µM
- TGI (MDA-MB-435): > 100 µM
- TGI (MDA-N): > 100 µM
- TGI (MOLT-4 leukemia): > 100 µM
- TGI (NCI-H226 lung): > 100 µM
- TGI (NCI-H23 lung): > 100 µM
- TGI (NCI-H460 lung): > 100 µM
- TGI (NCI-H522 lung): > 100 µM
- TGI (NCI/ADR-RES ovarian): > 100 µM
- TGI (OVCAR-3 ovarian): > 100 µM
- TGI (OVCAR-4 ovarian): > 100 µM
- TGI (OVCAR-5 ovarian): > 100 µM
- TGI (OVCAR-8 ovarian): > 100 µM
- TGI (PC-3 prostate): > 100 µM
- TGI (RPMI-8226 leukemia): > 100 µM
- TGI (SF-268 CNS): > 100 µM
- TGI (SF-295 CNS): > 100 µM
- TGI (SF-539 CNS): > 100 µM
- TGI (SK-MEL-2 melanoma): > 100 µM
- TGI (SK-MEL-28 melanoma): > 100 µM
- TGI (SK-MEL-5 melanoma): > 100 µM
- TGI (SK-OV-3 ovarian): > 100 µM
- TGI (SN12C renal): > 100 µM
- TGI (SNB-19 CNS): > 100 µM
- TGI (SNB-75 CNS): > 100 µM
- TGI (SR leukemia): > 100 µM
- TGI (SW-620 colon): > 100 µM
- TGI (T-47D breast): > 100 µM
- TGI (TK-10 renal): > 100 µM
- TGI (U251 CNS): > 100 µM
- TGI (UACC-257 melanoma): > 100 µM
- TGI (UACC-62 melanoma): > 100 µM
- TGI (UO-31 renal): > 100 µM
